One data set deals with SUM149 cells. Kind of data set: Trypan blue viability assay. Type of data set: cell-based, human. As to conditions: for effect of Cu chelator on DSF-Cu-induced cell death: BCS 100 μM, TM 10 μM. As to the method:
(§1) Cells were treated for 24 h in regular growth medium with Disulfiram (Sigma), CuSO4 (VWR), SOD mimetic (MnTnHex-2-PyP^5+), bathocuproine disulfonate (BCS, Sigma), and tetrathiomolybdate (TM, Sigma). Cell viability was determined by trypan blue exclusion as described previously (Aird et al., 2008) where % viability was calculated as live cells/total cells×100.

The next data set concerns rSUM149 cells. Kind of data set: Trypan blue viability assay. The data set is classed as cell-based, human. As to conditions: for effect of Cu chelator on DSF-Cu-induced cell death: BCS 100 μM, TM 10 μM. As to the method:
as §1

A further data set has as its system ALDH. Kind of data set: ALDEFLUOR assay. The data set is classed as cell-based, human. As to conditions: SUM149 cells, 24 h, sub-lethal dose. As to the method:
ALDH enzymatic activity was assessed using the ALDEFLUOR kit (Stem Cell Technologies) according to the manufacturer's instructions. Briefly, cells were incubated with ALDH substrate for 35 minutes at 37° C. The specific ALDH inhibitor diethylaminobenzaldehyde (DEAB) was used as negative control. Sorting gates were established using 7-AAD stained cells for viability and ALDEFLUOR-stained cells treated with DEAB as negative controls. Dot plots from a representative experiment are shown with mean±SEM from four experiments.

In a further data set the test system is IBC cells. Kind of data set: Trypan blue viability assay, IBC cell lines overall. The data set is classed as cell-based. As to the method: as §1
In the next data set the test system is Nrf2. Kind of data set: Nrf2 activity assay (ARE luciferase reporter). The data set is classed as cell-based. As to conditions: Cu 10 μM, DSF 10-20 μM, DSF-Cu 150 nM. As to the method: Cells in opaque 96-well plates (Greiner Bio-One) were transfected with pGL4.37 (ARE firefly luciferase reporter, Promega) and pGL4.75 (Renilla luciferase control, Promega) plasmids using a 3:1 ratio of […] (Roche Applied Science, Indianapolis, Ind.) to DNA. The next day, cells were treated with as indicated. After 24 h, the Dual-Glo Luciferase Assay System (Promega) was used and luminescence read on a Veritas microplate luminometer (Turner BioSystems). Firefly luminescence was normalized to Renilla luminescence for each sample, and this value normalized to untreated.
(In a reporter assay the amount or activity of a reporter protein is the signal.)

Data set [1] concerns IBC cells (SUM149, rSUM149). Kind of data set: Cell-associated Cu in cell lysates by ICP-HRMS. The data set is classed as cell-based. As to conditions: 10 μM Cu, 24 h. As to the method:
Cell lysates were prepared as above. For tumors, a portion of each tumor was placed into tissue lysis buffer (GoldBio Technology) and homogenized using the Bullet Blender Storm and lysis beads (MidSci). Lysates were analyzed for Cu content using a Thermo Scientific Element 2 inductively coupled plasma high-resolution mass spectrometer (ICP-HRMS) at the W. M. Keck Elemental Geochemistry Laboratory (University of Michigan, Ann Arbor, Mich.), and Cu content of lysis buffer blank was subtracted from each sample. Values were normalized to protein for reporting as ng Cu/mg protein.

The conditions of data set [2]: accepted daily dosing of 250-500 mg, human plasma; cited from earlier work.
For data set [3], the system named is BCM2 Xenograft brain metastatic cells. As to conditions: due to upregulation of GSH; cited from earlier work.
Another data set has as its system tumor xenografts. Kind of data set: Tumor radiation control curve with MnSOD mimic. Type of data set: in vivo.
The test system of data set [4] is ctr1/ctr3Δ mutant MPY17 S. cerevisiae cells. Kind of data set: Complementation of S. cerevisiae Cu+-transport mutants. Type of data set: cell-based, Saccharomyces cerevisiae. As to conditions: YPEG media, 30° C., 3 days, absorbance at 600 nm. As to the method: SEY6210 (wild type) (Robinson et al., 1988) and ctr1/ctr3Δ mutant MPY17 S. cerevisiae cells (Pena et al., 1998) were grown in YPEG media (3% ethanol, 3% glycerol, 1% yeast extract, 2% Bacto Peptone, 2% agar) with addition of 0-50 μM known Cu ionophore, zinc pyrithione (ZPT) (Reeder et al., 2011), or DSF. Cells were allowed to grow at 30° C. for 3 days; growth was assessed by measuring optical density at 600 nm on a Spectramax Plus 384 plate reader (Molecular Devices).

Bounds are passed on as bounds.

Take `Cc1cc(-c2ccc(S(=O)(=O)O)cc2)c2ccc3c(-c4ccc(S(=O)(=O)O)cc4)cc(C)nc3c2n1` [BCS, bathocuproine disulphonate]: the “effect of Cu chelator on DSF-Cu-induced cell death” value in the data set on SUM149 cells and in the data set on rSUM149 cells was “almost completely blocked DSF-Cu-induced cell death” each time.
On to `O=S(=O)([O-])[O-].[Cu+2]` [Cu, CuSO4], for which the “ALDH+ population” value in the data set on ALDH is listed as “neither DSF nor Cu alone affected”. The cytotoxicity result with IBC cells (Cu alone (10 μM), 24 h) is “not cytotoxic”. Also, in the data set with Nrf2, the Nrf2 transcriptional activity entry is recorded as “induced Nrf2 transcriptional activity”. Also, in [1], the Cu accumulation result is “slight increase”.
By IC50 is commonly meant the midpoint of a concentration-inhibition curve. High values mean weaker potency, low ones greater potency. Regarding `CCN(CC)C(=S)SSC(=S)N(CC)CC` [DSF, Disulfiram], the IC50 with SUM149 cells (Homo sapiens, SUM149, DSF alone, 24 h, trypan blue exclusion) was around 17 µM; in the data set on rSUM149 cells (Homo sapiens, DSF alone, 24 h, trypan blue exclusion), 25 to 30 µM. Further, the plasma concentration in data set [2] was below 2 µM. Besides, the “concentrations at which DSF induced toxicity” value in the data set with IBC cells (DSF alone) was “greater than 10 μM”.
For the compound `[SH-].[SH-].[S]=[Mo]=[S]` [TM, tetrathiomolybdate], the “effect of Cu chelator on DSF-Cu-induced cell death” value with SUM149 cells and in the data set on rSUM149 cells was “almost completely blocked DSF-Cu-induced cell death” throughout.
Turning to `CC(C)C[C@H](NC(=O)[C@H](Cc1ccccc1)NC(=O)c1cnccn1)B(O)O` [bortezomib], the “fold less sensitive to bortezomib” value in data set [3] was “drugs; brain metastatic cells 60-fold less”.
Turning to MnBuOE, in the data set on tumor xenografts (radiosensitization of xenograft tumors), the dose modifying factor was 1.3. The same compound returned a TCD50 dose in the data set on tumor xenografts (total RT applied in 5 fractions, treatment pre- and post-RT, saline controls 47Gy) of 36.5 Gy.
For MnTnHexyl-2-PyP^5+, in the data set on rSUM149 cells (100-200 μM SOD mimetic), the “effect of SOD mimetic on DSF-Cu cell death” value is “blocked cell death caused by DSF-Cu treatment”.
For the compound zinc pyrithione [ZPT], the “growth of MPY17 cells” value in [4] is on record as “grew similarly to the SEY6210 cells”.

The values above are taken from US10195164B2, “Use of disulfiram for inflammatory breast cancer therapy” (Duke University, priority 2015, dated 2019).
